Measured values: US6265423A, “Aromatic polycyclic retinoid-type derivatives, method for preparing same, and use thereof for making pharmaceutical and cosmetic compositions” (priority 1996, dated 2001)

Experiments:
[1] = test system: RARα-ERcassette; assay: Transactivation, chimerical receptor RARα-ERcassette (HeLa); format: cell-based; details: TTNPB 10^-8 M = 100
Description: (§1) The HeLa cells are co-transfected by a plasmid which codes for a retinoic receptor in which the C domain of bonding to the DNA is substituted by that of the receptor to RE oestrogens, and a plasmid which places the expression of the luciferase under the control of an ERE (Element of Response to Oestrogens). The expressed chimerical receptors are designated as RARα-ERcassette, RARβ-ERcassette, RARγ-ERcassette and RXRα-ERcassette. The A, B, D, E and F regions of the natural receptor are preserved as well as the transcriptional co-operation between the activation domains AF-1 and AF-2. These transitory transfection experiments follow the method of co-precipitation to calcium phosphate. The HeLa cells are co-transfected by […] of plasmid coding for the chimerical receptor, […] of reporter plasmid and […] of expression vector CMV-β-galactosidase used as an internal control of transfection. 24 hours after the transfection, the cells are incubated for 16 hours with the different effectors.
(§2) In this type of chimerical receptor, the C domain of bonding to the DNA of RAR is substituted by that of the receptor to the RE oestrogens. The protein obtained is close to the natural RAR receptor and preserves the transcriptional properties of the AF-1 and AF-2 domains. It modulates the transcription by means of an ERE. This RAR-ERcassette model allows one to observe a transcriptional response to a more physiological ligand.

[2] = test system: RARβ-ERcassette; assay: Transactivation, chimerical receptor RARβ-ERcassette (HeLa); format: cell-based; details: TTNPB 10^-8 M = 100
Description: as §1, §2

[3] = test system: RARγ-ERcassette; assay: Transactivation, chimerical receptor RARγ-ERcassette (HeLa); format: cell-based; details: TTNPB 10^-8 M = 100
Description: as §1, §2

[4] = test system: T-47D cells; assay: Effect on oestrogen-induced proliferation of T-47D cells; format: cell-based, human; details: Homo sapiens, T47D, 168 h; 10^-6 M; 100% = E2 10^-9 M, 7 days; read-out: growth of T-47D cells
Procedure: (§3) MCF-7 cells and HeLa are cultivated in DMFM with phenol red to which 5% foetal calf serum is added. The T47-D cells are cultivated in RPMI to which 10% foetal calf serum is added. The experimental tests are carried out in DMEM without phenol red to which foetal calf serum treated with dextran carbon is added at 3%. […] The experiments using the different retinoids are carried out sheltered from the light so as to avoid any isomerisation.
So as to test the anti-proliferation effect of the retinoids, growth experiments under oestrogenic conditions were carried out on cells MCF-7 and T-47D. These are the human oestrogen-dependent mammary cancer cells which express the receptor to RE oestrogens. The effect of the molecules is evaluated after 7 days of culture in oestrogenic conditions (estradiol 10^-9 M) by dosing the cellular DNA. The cells are distributed in 24 well plates at a density of 2×10^4 cells per well. The tests with the different retinoids are carried out in triplicate and the culture medium is changed after 4 days of growth.

[5] = test system: response element RARE of RARβ gene, endogenic retinoic receptors, HRLN lineage; assay: HRLN transactivation (RARE-luciferase, stably transfected HeLa); format: cell-based
Procedure: as §3
(§4) Certain properties of the retinoids have been determined using more developed cellular models. These models consist of cellular lineages transfected in a stable fashion by recombinant plasmids which place the expression of the gene of the luciferase under the control of different nuclear response elements. […] The tests carried out in duplicate are described below for each of these models.
The cellular lineages HRLN and HRL+N allow one to study the activation of an RARE by endogenic receptors using ligands at physiological concentrations. These lineages derive from HeLa cells transfected in a stable fashion by a reporter gene which places the expression of the gene of the luciferase under the control of a nuclear response element RARE (RARE3 -tk-Luc). The HeLa cells express all the known receptors of the retinoic acid (RARα,β,γ and RXRα,β,γ) with a predominance of RARα and RXRα. The response element RARE used for the HRLN cells corresponds to the sequence of the natural gene of the RARβ receptor (GGTTCAnnnnnAGTTCA). The HRL+N cells comprise the sequence GAGTGAnnnnnCGGTGA.
This lineage comprises the response element RARE of the natural gene of the RARβ receptor which controls the expression of the gene of the luciferase.

[6] = test system: AP-1, MTLN lineage (MCF-7); assay: Anti-AP-1 effect, MTLN lineage activated by TPA; format: cell-based, human
Procedure: as §4
The anti-factor AP-1 transrepressor effect of retinoids is determined using the MTLN lineage, coming from MCF-7 cells transfected in a stable fashion by a vector p(TRE)3 -tk-Luc which places the expression of the gene of luciferase under the control of […]. TPA activates the AP-1 complex formed from proteins of the family of nuclear proto-oncogenes (c-Jun and c-Fos). […] The experiments are made with the MTLN cells activated by 10^-7 M TPA.
The effect of the compounds on the MTLN cells activated by 10^-7 M TPA is expressed as a percentage. […] The inhibitive properties of the products are calculated after deduction of the base activity of the cells. The percentages reported correspond to a range of inhibitions determined from several experiments.

[7] = test system: ERE-βGlob-Luc, MELN lineage (MCF-7); assay: Anti-oestrogenic effect, MELN lineage activated by estradiol; format: cell-based, human
Description: as §4
MCF-7 cells express RARα,γ and RXRα. The transfection of MCF-7 cells by an oestrogen-dependent gene (ERE-βGlob-Luc) has permitted the establishment of the MELN cellular lineage, used to determine the anti-oestrogenic activity of the retinoids. These cells contain the gene of the luciferase under the transcriptional control of the promoter of the βGlobine and of the response element ERE isolated from the gene of chicken vitelogenine A2. The experiments are carried out with MELN cells activated by 10^-9 M estradiol. The level of base activity of the MELN cells is obtained with the anti-oestrogen 1 μM 4-OH-tamoxifen (hydroxytamoxifen).
The effect of the products tested on the cells activated by 10^-9 M estradiol is expressed as a percentage, the level of base activity being deducted.

[8] = test system: RAR-ERcassettes (RARα, RARβ, RARγ); assay: Chimerical receptors RAR-ERcassettes, overall profile; format: cell-based
Description: as §1, §2

[9] = test system: RAR and RXR receptors; assay: RAR/RXR activity profile drawn from the models; format: cell-based
Description: The reference molecules have allowed one to show the effectiveness and the complementary nature of the different models used and lead to the following conclusions: chimerical constructions GAL-RAR and RAR-ERcassette allow the determination of the RAR agonist profile of molecules, but also an RXR agonist activity with RAR-ERcassette, the HRLN lineage mainly conveys the activity of a compound mediated by endogenic RARα, the HRL+N lineage also provides evidence of an RXR agonist activity of the retinoids, the anti-oestrogenic effect of the retinoids (oestrogen-induced cellular proliferation and MELN lineage) is mediated by RARα, the anti-AP-1 effect is mediated in the MCF-7 cells (MTLN lineage) by RARα, RARγ and RXRα, and an additive effect exists between the RAR and RXR routes.

[10] = test system: ZR-75-1 human mammary cancer cells; assay: MTT test, proliferation of ZR-75-1; format: cell-based
Procedure: (§5) The cells that were cultured came from the ATCC (American Type Culture Collection).
(§6) The cellular lines are kept in culture in a monolayer at 37° C. in closed culture dishes (Nunc. Gibco BRL, Life Technologies, Belgium) containing the minimum essential medium (MEM, Gibco) supplemented with 5% of Foetal Calf Serum, (FCS, Gibco), 0.6 mg/ml of glutamine (Gibco) and a mixture of 200 IU/mi of penicillin (Gibco), 200 μg/ml of streptomycin (Gibco) and 0.1 mg/ml of gentamycin (Gibco). The foetal calf serum is decomplemented for 1 hour at 56° C.
(§7) This test is based on the mitochondrial reduction by living metabolically active cells of the MTT (3-(4,5-dimethylthiazol-2-yl)-2,5-diphenyltetrazolium bromide) of yellowish colour into a blue coloured product, formazan. The quantity of formazan obtained is directly proportional to the number of living cells. After incubation of the cells for 24 hours in microplates with 96 flat bottomed wells, the culture medium is replaced by 100 μl of fresh culture medium containing the drug to be tested.
(§8) The microplates are then incubated for 3 hours at 37° C. and centrifuged for 10 minutes at 400 g (GPR centrifuge, Beckman). The MTT solution is replaced by 100 μl of dimethylsulphoxide (Merck). The microplates are agitated (Vari-Shaker, Dynatech) for 10 minutes.
(§9) In the microplates, the control cells like the treated cells were incubated in a medium without the compounds to be tested for 24 hours. The control cells are incubated in a medium without a drug throughout the whole experiment, while the treated cells are incubated in different media. These media contain the molecule to be tested at various concentrations: 10^-8 M, 10^-6 M and 10^-4 M. All the tests are carried out in 6 duplicates.
(§10) The statistical comparisons are carried out according to the Fisher Test:
(§11) The mean optical density measured for each experimental condition is expressed as a percentage in relation to the laid down control condition being equal to 100%.

[11] = test system: T-47D human mammary cancer cells; assay: MTT test, proliferation of T-47D; format: cell-based
Procedure: as §5, §6, §7, §8, §9, §10, §11

[12] = test system: A549 human pulmonary cancer cells; assay: MTT test, proliferation of A549; format: cell-based
[13] = cited from earlier work
[14] = test system: A-427 human pulmonary cancer cells; assay: MTT test, proliferation of A-427; details: Homo sapiens, A-427, 72 h, read-out: level of proliferation
[15] = Homo sapiens, A549, 72 h, read-out: level of proliferation

Compound: C/C(=C/c1ccc2c(c1)C(C)(C)CCC2(C)C)c1ccc(C(=O)O)s1 [CB30382, (Z) 2-[1-(5,6,7,8-tetrahydro-5,5,8,8-tetramethyl-2-naphthalenyl)-2-propenyl]thienyl-5-carboxylic acid]
- RAR-ERcassette RARα transactivation ([1]; 10^-6 M): 93%
- RAR-ERcassette RARα transactivation ([1]; 10^-7 M): 12%
- RAR-ERcassette RARβ transactivation ([2]; 10^-6 M): 130%
- RAR-ERcassette RARβ transactivation ([2]; 10^-7 M): 39%
- RAR-ERcassette RARγ transactivation ([3]; 10^-6 M): 83%
- RAR-ERcassette RARγ transactivation ([3]; 10^-7 M): 29%
- activity at 1 µM [4]: 73 to 94%
- HRLN transactivation (in words) [5]: induce a transactivation close to that of TTNPB
- Emax ([5]; Homo sapiens, HeLa, read-out: HRLN transactivation, E max): 102%
- inhibition at 1 µM ([6]; Homo sapiens, MCF7, 10^-6 M, cells activated by 10^-7 M TPA, range of several experiments): 42 to 47%
- inhibition at 0.1 µM ([6]; Homo sapiens, MCF7, 10^-7 M, cells activated by 10^-7 M TPA, range of several experiments, read-out: anti-AP-1 effect, inhibition): 21%
- anti-AP-1 effect (in words) ([6]; TPA-activated MTLN cells): exert an inhibitor effect comparable to that of the effect of CB28628
- inhibition ([7]; Homo sapiens, MCF7, 10^-6 M, cells activated by 10^-9 M estradiol): 2 to 20%
- inhibition at 0.1 µM ([7]; Homo sapiens, MCF7, 10^-7 M, cells activated by 10^-9 M estradiol, read-out: anti-oestrogenic effect, inhibition): 0%
- anti-oestrogenic effect (in words) ([7]; estradiol-activated MELN cells): permit a transrepression of a controlled gene by an ERE
- RAR-ERcassette profile (in words) [8]: induce a transactivation mediated by the three receptors
- RAR/RXR activity profile (in words) [9]: panagonistic

Compound: CC1=C(/C=C/C(C)=C/C=C/C(C)=C\C(=O)O)C(C)(C)CCC1 [CB81808, 13-cis retinoic acid, reference compound]
- activity at 100 µM ([10]; Homo sapiens, ZR-75-1, 10^-4 M, 72 h, control = 100%, read-out: level of proliferation): 2.3%
- activity at 1 µM ([10]; Homo sapiens, ZR-75-1, 10^-6 M, 72 h, control = 100%, read-out: level of proliferation): 55%
- activity at 0.01 µM ([10]; Homo sapiens, ZR-75-1, 10^-8 M, 72 h, control = 100%, read-out: level of proliferation): 41.6%
- effect on cellular increase, ZR-75-1 (in words) ([10]; MTT test): inhibit the cellular increase of the two mammary lineages at the concentrations tested
- activity at 100 µM ([11]; Homo sapiens, T47D, T-47D, 10^-4 M, 72 h, control = 100%, read-out: level of proliferation): 9.94%
- activity at 1 µM ([11]; Homo sapiens, T47D, T-47D, 10^-6 M, 72 h, control = 100%, read-out: level of proliferation): 51.8%
- activity at 0.01 µM ([11]; Homo sapiens, T47D, T-47D, 10^-8 M, 72 h, control = 100%, read-out: level of proliferation): 70.3%
- effect on cellular increase, T-47D (in words) ([11]; MTT test): inhibit the cellular increase of the two mammary lineages at the concentrations tested
- activity at 0.01 µM [12, 15]: 77.6%
- activity at 1 µM [12, 15]: 85.9%
- activity at 100 µM [12, 15]: 23.6%
- effect on cellular increase, A549 (in words) ([12]; MTT test): inhibit the proliferation of the A549 lineage at 10^-6 M and 10^-8 M
- adverse effects in chronic treatment (in words) [13]: powerful effect of hypervitaminose, of mucocutaneous toxicity and of teratogenecity
- activity at 0.01 µM [14]: 100%
- activity at 1 µM [14]: 99.6%
- activity at 100 µM [14]: 6.5%
